Experimental data as given in patent US20240197737A1, “APPLICATION OF COMPOUND IN PREPARATION OF INHIBITORY DRUG TARGETING ERBB2 MUTANT” (SHANGHAI PHARMACEUTICALS HOLDING CO., LTD., priority 2021, published 2024).

Assays:
ErbB2 (D769H) = target: T1, ErbB2 (D769H) (Homo sapiens, UniProt P04626, D769H); test: ErbB2 mutant inhibition assay (33P-ATP radiometric kinase assay, Reaction Biology); assay type: biochemical; settings: ATP 10 μM, 20 min preincubation, 2 h reaction; read-out: Compound IC50 ErbB2 (D769H)
T1 construct: purchased Reaction Biology Corporation
T1 sequence (P04626 23-1255 D769H): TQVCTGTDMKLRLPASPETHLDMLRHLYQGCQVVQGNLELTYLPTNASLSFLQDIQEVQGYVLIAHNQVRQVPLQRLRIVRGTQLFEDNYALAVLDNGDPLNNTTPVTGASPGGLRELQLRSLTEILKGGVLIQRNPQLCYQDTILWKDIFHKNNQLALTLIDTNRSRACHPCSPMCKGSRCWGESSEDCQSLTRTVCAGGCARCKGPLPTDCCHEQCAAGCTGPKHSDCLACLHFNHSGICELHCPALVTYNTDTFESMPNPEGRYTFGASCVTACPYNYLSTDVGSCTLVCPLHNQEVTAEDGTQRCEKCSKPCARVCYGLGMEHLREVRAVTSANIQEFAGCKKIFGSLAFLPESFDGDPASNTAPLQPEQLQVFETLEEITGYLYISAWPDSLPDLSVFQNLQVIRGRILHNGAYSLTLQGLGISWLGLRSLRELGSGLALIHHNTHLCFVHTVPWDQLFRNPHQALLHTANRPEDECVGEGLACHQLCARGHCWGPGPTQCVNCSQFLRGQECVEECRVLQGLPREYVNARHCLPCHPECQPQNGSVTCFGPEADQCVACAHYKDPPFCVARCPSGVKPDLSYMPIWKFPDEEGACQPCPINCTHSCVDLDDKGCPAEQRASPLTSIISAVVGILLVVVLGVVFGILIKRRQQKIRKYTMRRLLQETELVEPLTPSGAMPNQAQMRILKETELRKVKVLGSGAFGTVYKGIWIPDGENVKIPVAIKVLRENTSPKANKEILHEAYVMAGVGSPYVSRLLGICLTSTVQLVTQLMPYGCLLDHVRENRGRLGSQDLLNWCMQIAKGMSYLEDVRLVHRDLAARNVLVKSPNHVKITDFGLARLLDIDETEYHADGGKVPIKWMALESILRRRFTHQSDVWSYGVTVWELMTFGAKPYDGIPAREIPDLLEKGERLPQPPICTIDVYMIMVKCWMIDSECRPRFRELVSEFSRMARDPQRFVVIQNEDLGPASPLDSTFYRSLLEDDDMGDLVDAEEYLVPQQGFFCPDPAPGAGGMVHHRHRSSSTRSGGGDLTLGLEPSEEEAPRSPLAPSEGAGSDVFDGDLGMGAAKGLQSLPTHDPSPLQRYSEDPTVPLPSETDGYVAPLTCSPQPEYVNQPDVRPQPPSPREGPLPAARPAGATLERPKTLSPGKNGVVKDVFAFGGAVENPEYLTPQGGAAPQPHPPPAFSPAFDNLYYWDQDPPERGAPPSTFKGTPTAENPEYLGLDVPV
Procedure: (§1) The reagents and materials used in the assay, as well as the testing procedure, were provided and carried out by Reaction Biology Corporation. The specific steps were as follows: • 1. […] Conditions for the enzyme reaction assay: The test compounds were incubated for 20 minutes, ATP concentration was set at 10 μM, and the total duration of the enzyme reaction was 2 hours. • 3. Experimental steps for the enzyme reaction
(§2) The enzyme reaction buffer was 20 mM HEPES at a pH of 7.5, 10 mM MgCl2, 2 mM MnCl2, 1 mM EGTA, 0.01% Brij35, 0.02 mg/mL BSA, 0.1 mM Na3VO4, 2 mM DTT, and 1% DMSO.
(§3) Kinase activity %=(Remaining kinase activity of test compound samples/Kinase activity of solvent control samples (DMSO))*100%
(§4) The IC50 of the compound was calculated by fitting the kinase activity % at different compound concentrations.

ErbB2 (D769Y) = target: T2, ErbB2 (D769Y) (Homo sapiens, UniProt P04626, D769Y); test: as above; assay type: biochemical; settings: ATP 10 μM, 20 min preincubation, 2 h reaction; read-out: Compound IC50 ErbB2 (D769Y)
T2 construct: purchased Reaction Biology Corporation
T2 sequence (P04626 23-1255 D769Y): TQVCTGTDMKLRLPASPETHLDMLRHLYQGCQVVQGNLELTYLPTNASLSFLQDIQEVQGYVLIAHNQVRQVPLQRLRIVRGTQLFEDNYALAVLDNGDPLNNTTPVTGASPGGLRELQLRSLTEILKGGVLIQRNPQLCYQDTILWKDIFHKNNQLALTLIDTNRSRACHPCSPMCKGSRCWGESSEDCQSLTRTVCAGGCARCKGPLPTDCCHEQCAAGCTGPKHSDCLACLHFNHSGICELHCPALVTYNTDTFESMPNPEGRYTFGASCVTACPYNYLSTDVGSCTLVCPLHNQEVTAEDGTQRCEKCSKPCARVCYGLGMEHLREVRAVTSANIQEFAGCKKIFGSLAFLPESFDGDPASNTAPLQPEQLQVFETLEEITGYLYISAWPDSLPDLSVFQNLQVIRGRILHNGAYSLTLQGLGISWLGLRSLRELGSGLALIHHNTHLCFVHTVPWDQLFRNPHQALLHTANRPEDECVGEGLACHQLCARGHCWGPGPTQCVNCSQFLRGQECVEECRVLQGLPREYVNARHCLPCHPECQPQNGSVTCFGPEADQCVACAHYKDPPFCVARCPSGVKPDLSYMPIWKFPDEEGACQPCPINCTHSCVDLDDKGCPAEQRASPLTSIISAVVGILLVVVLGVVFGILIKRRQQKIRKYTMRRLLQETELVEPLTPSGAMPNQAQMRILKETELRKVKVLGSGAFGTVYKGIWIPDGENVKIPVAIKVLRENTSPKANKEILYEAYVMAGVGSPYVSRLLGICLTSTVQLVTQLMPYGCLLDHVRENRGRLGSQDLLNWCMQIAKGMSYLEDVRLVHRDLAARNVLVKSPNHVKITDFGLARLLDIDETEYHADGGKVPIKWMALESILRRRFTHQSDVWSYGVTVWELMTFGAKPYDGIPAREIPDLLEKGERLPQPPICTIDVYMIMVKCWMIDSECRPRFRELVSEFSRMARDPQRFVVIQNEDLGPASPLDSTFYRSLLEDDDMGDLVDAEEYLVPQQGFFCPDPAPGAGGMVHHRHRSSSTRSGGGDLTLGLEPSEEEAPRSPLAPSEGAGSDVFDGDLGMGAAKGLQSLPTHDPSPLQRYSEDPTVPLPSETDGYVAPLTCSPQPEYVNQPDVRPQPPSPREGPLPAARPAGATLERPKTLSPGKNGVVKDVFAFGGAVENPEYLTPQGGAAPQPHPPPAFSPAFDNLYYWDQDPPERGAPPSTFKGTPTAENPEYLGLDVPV
Procedure: as §1, §2, §3, §4

ErbB2 (R896C) = target: T3, ErbB2 (R896C) (Homo sapiens, UniProt P04626, R896C); test: as above; assay type: biochemical; settings: ATP 10 μM, 20 min preincubation, 2 h reaction; read-out: Compound IC50 ErbB2 (R896C)
T3 construct: purchased Reaction Biology Corporation
T3 sequence (P04626 23-1255 R896C): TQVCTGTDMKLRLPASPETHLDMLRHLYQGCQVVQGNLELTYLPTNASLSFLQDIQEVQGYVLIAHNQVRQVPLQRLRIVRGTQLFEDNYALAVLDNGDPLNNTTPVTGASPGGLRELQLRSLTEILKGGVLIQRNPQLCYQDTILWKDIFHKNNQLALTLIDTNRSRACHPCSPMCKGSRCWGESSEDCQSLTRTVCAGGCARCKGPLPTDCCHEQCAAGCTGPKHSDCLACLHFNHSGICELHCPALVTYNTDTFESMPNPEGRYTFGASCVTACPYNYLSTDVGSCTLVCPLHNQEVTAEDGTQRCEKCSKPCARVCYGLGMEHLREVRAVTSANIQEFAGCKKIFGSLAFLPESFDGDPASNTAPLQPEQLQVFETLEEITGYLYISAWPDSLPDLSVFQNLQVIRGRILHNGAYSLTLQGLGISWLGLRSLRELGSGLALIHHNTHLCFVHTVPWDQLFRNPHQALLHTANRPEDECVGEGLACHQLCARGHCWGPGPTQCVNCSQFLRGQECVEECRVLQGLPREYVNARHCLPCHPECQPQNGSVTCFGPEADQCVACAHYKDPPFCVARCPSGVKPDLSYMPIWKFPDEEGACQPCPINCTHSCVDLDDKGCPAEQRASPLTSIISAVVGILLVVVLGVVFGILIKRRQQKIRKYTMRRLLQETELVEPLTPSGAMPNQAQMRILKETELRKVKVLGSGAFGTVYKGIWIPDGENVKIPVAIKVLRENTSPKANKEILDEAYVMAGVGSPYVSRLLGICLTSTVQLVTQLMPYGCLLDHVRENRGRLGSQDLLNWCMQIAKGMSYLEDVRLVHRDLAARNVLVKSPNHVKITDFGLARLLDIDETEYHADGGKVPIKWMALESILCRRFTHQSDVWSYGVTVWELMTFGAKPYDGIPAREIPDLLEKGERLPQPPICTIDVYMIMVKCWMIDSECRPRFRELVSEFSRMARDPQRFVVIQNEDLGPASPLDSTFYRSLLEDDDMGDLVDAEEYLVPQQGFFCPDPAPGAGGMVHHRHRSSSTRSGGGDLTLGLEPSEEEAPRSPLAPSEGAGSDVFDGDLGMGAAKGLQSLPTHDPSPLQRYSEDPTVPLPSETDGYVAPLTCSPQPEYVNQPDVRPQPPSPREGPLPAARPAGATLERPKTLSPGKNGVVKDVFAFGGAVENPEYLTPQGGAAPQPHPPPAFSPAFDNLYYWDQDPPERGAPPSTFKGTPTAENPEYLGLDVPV
Procedure: as §1, §2, §3, §4

ErbB2 (V777L) = target: T4, ErbB2 (V777L) (Homo sapiens, UniProt P04626, V777L); test: as above; assay type: biochemical; settings: ATP 10 μM, 20 min preincubation, 2 h reaction; read-out: Compound IC50 ErbB2 (V777L)
T4 construct: purchased Reaction Biology Corporation
T4 sequence (P04626 23-1255 V777L): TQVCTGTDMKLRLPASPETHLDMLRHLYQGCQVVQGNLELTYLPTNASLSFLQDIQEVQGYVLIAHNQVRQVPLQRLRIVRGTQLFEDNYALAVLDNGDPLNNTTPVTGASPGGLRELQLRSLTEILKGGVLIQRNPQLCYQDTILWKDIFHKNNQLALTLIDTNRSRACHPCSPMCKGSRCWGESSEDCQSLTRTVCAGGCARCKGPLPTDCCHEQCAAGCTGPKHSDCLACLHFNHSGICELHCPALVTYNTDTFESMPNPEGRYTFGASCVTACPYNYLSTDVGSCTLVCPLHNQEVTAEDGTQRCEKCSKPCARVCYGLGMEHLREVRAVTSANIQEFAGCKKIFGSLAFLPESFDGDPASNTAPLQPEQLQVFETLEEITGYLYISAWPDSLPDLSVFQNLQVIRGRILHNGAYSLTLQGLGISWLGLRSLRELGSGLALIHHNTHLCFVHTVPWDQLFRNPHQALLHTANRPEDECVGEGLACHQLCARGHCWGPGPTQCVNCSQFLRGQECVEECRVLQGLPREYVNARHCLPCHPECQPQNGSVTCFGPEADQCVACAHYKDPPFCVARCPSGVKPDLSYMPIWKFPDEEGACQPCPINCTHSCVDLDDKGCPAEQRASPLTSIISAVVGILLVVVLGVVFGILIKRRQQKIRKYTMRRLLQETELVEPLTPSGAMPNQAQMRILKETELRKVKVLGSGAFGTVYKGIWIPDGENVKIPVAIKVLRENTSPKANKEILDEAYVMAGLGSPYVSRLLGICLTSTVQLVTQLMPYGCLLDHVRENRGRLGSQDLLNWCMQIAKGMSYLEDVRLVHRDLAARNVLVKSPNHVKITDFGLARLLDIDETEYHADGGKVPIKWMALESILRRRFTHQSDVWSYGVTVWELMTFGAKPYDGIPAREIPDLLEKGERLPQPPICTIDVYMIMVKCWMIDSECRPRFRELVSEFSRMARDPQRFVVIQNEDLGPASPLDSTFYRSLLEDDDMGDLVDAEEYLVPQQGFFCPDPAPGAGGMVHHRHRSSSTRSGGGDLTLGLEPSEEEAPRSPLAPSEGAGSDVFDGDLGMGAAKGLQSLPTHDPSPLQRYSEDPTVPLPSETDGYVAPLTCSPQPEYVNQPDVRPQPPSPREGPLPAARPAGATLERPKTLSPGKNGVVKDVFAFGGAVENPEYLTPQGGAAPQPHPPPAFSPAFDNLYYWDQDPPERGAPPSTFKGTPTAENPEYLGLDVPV
Procedure: as §1, §2, §3, §4

[1] = test system: NCI-H1781 ErbB2 exon20ins (G766 > VC); test: ErbB2 mutant cell inhibition test (CTG, 72 hours); assay type: cell-based, Human
Procedure: Cells were cultured, harvested during their logarithmic growth phase, and counted using a platelet counter. Cell viability was verified to be above 90% by trypan blue exclusion assay. After in vitro culture, 2×10^6 cells were obtained. The cell suspension was aliquoted into a 96-well plate at 1×10^3 cells per well (90 μL/well), and incubated overnight under conditions of 37° C., 5% CO2, and 95% humidity. A 10× drug solution was prepared, with a maximum concentration of 10 μM for the assay, and serially diluted 3-fold to nine concentrations. 10 μL of the drug solution was added to each well of the 96-well plate inoculated with the cells, and three duplicate wells were set for each drug concentration. The 96-well plate, now containing the drug-treated cells, was cultured under conditions of 37° C., 5% CO2, and 95% humidity for an additional 72 hours before CTG analysis was performed.

[2] = test system: Ba/F3 ErbB2 A775_G776insYVMA; test: ErbB2 mutant cell inhibition test (CTG, 72 hours); assay type: cell-based
Procedure: Cells were cultured, harvested during their logarithmic growth phase, and counted using a platelet counter. Cell viability was verified to be above 90% by trypan blue exclusion assay. After in vitro culture, 2×10^6 cells were obtained. […] A 10× drug solution was prepared, with a maximum concentration of 10 μM for the assay, and serially diluted 3-fold to nine concentrations. 10 μL of the drug solution was added to each well of the 96-well plate inoculated with the cells, and three duplicate wells were set for each drug concentration.

[3] = test system: Ba/F3 ErbB2 A775_G776insYVMA mouse xenograft; test: Efficacy testing in NPSG mouse xenograft model; assay type: in vivo; settings: for TGI (%): administration for 13 days; for Efficacy (in words): continuous administration for 13 days
From the text: NPSG male mice (Shanghai Jihui Laboratory Animal Care Co., Ltd., Certificate: No. 20170012006783) were subcutaneously inoculated on the right shoulder with Ba/F3 ErbB2 A775_G776insYVMA cells (cultured in vitro, 9×10^7 cells obtained). When the average tumor volume reached 130 mm^3, the mice were randomly divided into six groups based on tumor volume and body weight, with 10 mice in each group, and administration was started immediately. After the initiation of administration, the mice's body weight and tumor volume were measured twice a week, with the administration continued until Day 13 of the experiment. On Day 14 of the experiment, post-administration sample collection was conducted for each group.
Note: Data are presented as mean±standard error; control group is the group without any compound administered.

Work on CCOc1cc2ncnc(Nc3ccc(Oc4ccn5ncnc5c4)c(C)c3)c2cc1NC(=O)/C(F)=C/[C@H]1CCCN1C [Compound I] yielded an IC50 (ErbB2 (D769H)) of 0.716 nM, an IC50 (ErbB2 (D769Y)) of 1.4 nM and an IC50 (ErbB2 (R896C)) of 0.713 nM. For the same molecule, the IC50 (ErbB2 (V777L)) was 0.312 nM, the IC50 ([1]; Homo sapiens, NCI-H1781 ErbB2 exon20ins (G766 > VC), 72 hours, CTG) was 35.8 nM and the “Inhibitory activity on cell proliferation (in words)” value ([1]; NCI-H1781 mutant cell line) was “good inhibitory activity”. The “Inhibitory activity on cell proliferation (in words)” value ([2]; Ba/F3 ErbB2 A775_G776insYVMA mutant cell line) was “good inhibitory activity”, the IC50 ([2]; Mus musculus, BaF3, Ba/F3 ErbB2 A775_G776insYVMA, 72 hours, CTG) was 5 nM and the Tumor volume ([3]; 10 mg/kg, Day 0, mean ± standard error) was 130.9 ± 4.72 mm^3. The Tumor volume ([3]; 10 mg/kg, Day 4, mean ± standard error) was 112.1 ± 4.71 mm^3, the Tumor volume ([3]; 10 mg/kg, Day 7, mean ± standard error) was 157.7 ± 6.95 mm^3 and the Tumor volume ([3]; 10 mg/kg, Day 11, mean ± standard error) was 160.2 ± 6.3 mm^3. The Tumor volume ([3]; 10 mg/kg, Day 13, mean ± standard error) was 172.9 ± 11.16 mm^3, the “TGI (%)” value ([3]; 10 mg/kg) was 95% and the “Efficacy (in words)” value ([3]; 10 mg/kg) was “strong efficacy”. The Tumor volume ([3]; 20 mg/kg, Day 0, mean ± standard error) was 130.2 ± 5.25 mm^3, the Tumor volume ([3]; 20 mg/kg, Day 4, mean ± standard error) was 69.2 ± 2.69 mm^3 and the Tumor volume ([3]; 20 mg/kg, Day 7, mean ± standard error) was 82.7 ± 4.74 mm^3. The Tumor volume ([3]; 20 mg/kg, Day 11, mean ± standard error) was 93.5 ± 5.75 mm^3, the Tumor volume ([3]; 20 mg/kg, Day 13, mean ± standard error) was 71.1 ± 4.51 mm^3 and the “TGI (%)” value ([3]; 20 mg/kg) was 107%. The “Efficacy (in words)” value ([3]; 20 mg/kg) was “strong efficacy”, the Tumor volume ([3]; 40 mg/kg, Day 0, mean ± standard error) was 130.1 ± 5 mm^3 and the Tumor volume ([3]; 40 mg/kg, Day 4, mean ± standard error) was 63.8 ± 4.44 mm^3. It also gave a Tumor volume ([3]; 40 mg/kg, Day 7, mean ± standard error) of 36.3 ± 11.12 mm^3, a Tumor volume ([3]; 40 mg/kg, Day 11, mean ± standard error) of 21.5 ± 9.26 mm^3 and a Tumor volume ([3]; 40 mg/kg, Day 13, mean ± standard error) of 20.6 ± 8.61 mm^3. The “TGI (%)” value ([3]; 40 mg/kg) was 112%, the “Efficacy (in words)” value ([3]; 40 mg/kg) was “strong efficacy” and the “Tumor inhibitory effect compared with the other test groups (in words)” value ([3]; 40 mg/kg, statistically different from other test groups (p-value less than 0.01)) was “strongest tumor inhibitory effect”.
